{
  "source": "patent US20040235163A1",
  "about": "“Myocardial cell apoptosis inhibitors” (priority 2001, published 2004)",
  "key": {"cardiac myocytes": {"system": "cardiac myocytes", "test": "Apoptosis in cardiac myocytes measured as in Examples 1 and 2, modulators of the nicorandil effect", "assay_type": "cell-based, rat", "protocol": "Flow cytometry analysis was performed using a Coulter EPICSXL and a software package specific for this purpose. After collection of floating cardiac myocytes from the cell culture (1×10^6 cells/well), adhered cardiac myocytes were trypsinated and collected in the same tube. After centrifugation, the pellet was washed with PBS, supplemented with 70% EtOH, and then allowed to stand at room temperature for 20 minutes or more to fix the cells. After fixation, the cells were washed with PBS, re-suspended in 1 ml PBS and then reacted with 50 μL RNase (1 mg/ml, Sigma) at 37° C. for 40 minutes. After the cells were allowed to stand at room temperature (if necessary), they were washed with PBS and suspended in about 250 μL PBS to prepare a cell suspension. Propidium iodide (250 μL, 25 μg/ml, Sigma) was added to and suspended well in the cell suspension, which was then allowed to stand at room temperature for 20 minutes or more and analyzed by flow cytometry. Cells showing a Sub-G1 peak in nuclear staining with propidium iodide were counted as apoptotic cells to calculate the percentage of cells showing a Sub-G1 peak relative to the total cell count measured (1×10^4 cells). The calculated percentage was defined as the percentage of apoptotic cells.\nH2O2 (Sigma) was added at a final concentration of 1×10^−4 M to the cell culture of cardiac myocytes prepared as described above (final density: 1×10^6 cells/2 ml/well), followed by culturing for 16 hours in a CO2 incubator. The cells were collected and analyzed by flow cytometory to determine the percentage of apoptotic cells. Nicorandil was also added at a final concentration of 1×10^−4 M immediately before H2O2 addition. […]\n(§1) Calcium ionophore A23187 (Sigma) was added at a final concentration of 5×10^−6 M to the cell culture of cardiac myocytes prepared as described in Example 1. The cells were cultured as described in Example 1 and analyzed to determine the percentage of apoptotic cells. […]\nApoptosis in cardiac myocytes was measured as described in Examples 1 and 2."}, "[1]": {"system": "neonatal rat ventricular myocytes (NRVMs)", "test": "Calcium ionophore A23187-induced apoptosis in cultured cardiac myocytes, flow cytometry", "assay_type": "cell-based", "protocol": "Cultured neonatal rat ventricular myocytes (NRVMs) were provided as cardiac myocytes used in the experiments. More specifically, hearts were extracted from 0- to 1-day-old neonatal rats (Wister, pregnant rats were purchased from Chubu Shizai). The ventricles of each heart were then treated with collagenase Type 2 (Worthington) and pancreatin (Sigma) to enzymatically isolate cardiac myocytes (collagenase 0.5 mg/ml, pancreatin 0.6 mg/ml, 4 treatments), followed by primary culture. After the enzymatically collected cells were seeded in plates and allowed to stand for 30 minutes, non-adhesive cells were collected to remove fibroblasts. The resulting cardiac myocytes were seeded at a density of 1×10^5 cells/cm^2 on 6-well plates or 75 cm^2 flasks pre-coated with 1% gelatin and then cultured at 37° C. under 5% CO2 for 48 hours in a medium consisting of DMEM/Medium 199 (4:1), 10% fetal bovine serum (FBS, Sigma), 0.1 mM bromodeoxyuridine (BrdU, Roche), penicillin (50 units/ml, GIBCO) and streptomycin (50 μg/ml, GIBCO). Culturing was carried out in a CO2 incubator under conditions of 37° C. The medium was then replaced with a serum-free medium which had been prepared from the same ingredients other than FBS and supplemented with insulin-transferrin-selenium (ITS, GIBCO). These cells were provided for experiments 24 hours after replacement with the serum-free medium. After immunocytostaining with a cardiac myocytespecific antibody (α-actinin antibody), the percentage of cardiac myocytes was measured by microscopy to confirm that 90% or more of the cells were cardiac myocytes at that stage.\nFlow cytometry analysis was performed using a Coulter EPICSXL and a software package specific for this purpose. After collection of floating cardiac myocytes from the cell culture (1×10^6 cells/well), adhered cardiac myocytes were trypsinated and collected in the same tube. […] Propidium iodide (250 μL, 25 μg/ml, Sigma) was added to and suspended well in the cell suspension, which was then allowed to stand at room temperature for 20 minutes or more and analyzed by flow cytometry. Cells showing a Sub-G1 peak in nuclear staining with propidium iodide were counted as apoptotic cells to calculate the percentage of cells showing a Sub-G1 peak relative to the total cell count measured (1×10^4 cells). The calculated percentage was defined as the percentage of apoptotic cells.\nas §1"}, "[2]": {"system": "neonatal rat ventricular myocytes (NRVMs)", "test": "H2O2-induced apoptosis in cultured cardiac myocytes, flow cytometry (Sub-G1 peak)", "assay_type": "cell-based"}, "[3]": {"system": "Bad protein (phospho-Bad Ser-136)", "test": "Western blot analysis of Bad phosphorylation in apoptotic cardiac myocytes", "assay_type": "cell-based, rat", "conditions": "pre-treatment with nicorandil, apoptotic cells induced by H2O2 or A23187", "protocol": "Both floating and adhered cardiac myocytes were collected and lysed at 4° C. for 1 hour in a lysis buffer consisting of 20 mM Tris-HCl (pH 7.5), 2 mM EDTA, 3 mM EGTA, 2 mM DTT, 250 mM sucrose, 1% Triton X-100, 10 μg/ml aprotinin, 10 μM leupeptin and 0.1 mM PMSF. The resulting cell lysate was measured for its protein level by the Bradford method, solubilized in 2× sample buffer and then boiled at 95° C. for 3 minutes. After each lane was loaded with 50 μg sample and electrophoresed on a 12.5% SDS-polyacrylamide gel, the gel was transferred to a PVDF membrane. The blots were blocked overnight in 3% BSA/0.1% Tween-20 in PBS and then detected with the following primary antibodies: rabbit polyclonal Bcl-2 antibody (Pharmingen), rabbit polyclonal Bax antibody (Pharmingen), mouse monoclonal p53 antibody (Calbiochem), mouse monoclonal poly(ADP-ribose) polymerase (PARP) antibody (Clontech) and rabbit polyclonal CPP32 antibody (Santa Cruz). […]\nBoth floating and adhered cardiac myocytes were collected from 75 cm^2 flasks and lysed in 0.5 mL lysis buffer consisting of 10 mM Tris-HCl (pH 7.4), 1 mM EDTA, 1 mM EGTA (pH 8.0), 150 mM NaCl, 1% Triton X-100, 0.2 mM sodium ortho-vanadate, 0.2 mM PMSF and 0.5% NP-40. […] The total Bad content was determined by probing with a rabbit polyclonal Bad antibody (New England Biolabs). […]"}, "[4]": {"system": "Neonatal rat cardiac myocytes", "test": "JC-1 mitochondrial membrane potential, confocal microscopy, H2O2 stimulation", "assay_type": "cell-based", "conditions": "pre-treatment with nicorandil 100 μmol/L; H2O2 200 μmol/L, 20 min", "description": "A fluorescent probe JC-1, a detection reagent for mitochondrial membrane potential, was used to confirm that nicorandil inhibited apoptosis in cardiac myocytes stimulated by H2O2. In most cases of cellular apoptosis, cytochrome C is translocated from mitochondrial membrane to cytosol, during which loss of mitochondrial membrane potential is known. Since JC-1 is a cationic fluorescent substance, it easily enters cells and emits red fluorescence (λem=590 nm) in normal cell mitochondria through formation of polymers called J-aggregates. […] Neonatal rat cardiac myocytes were seeded at a density of 1×10^6 cells/well in 35 mm dishes with glass bottoms (IWAKI) and cultured at 37° C. for 10 minutes in serum-free DMEM/F12 medium containing 10 μg/mL JC-1 (Wako Pure Chemical Industries, Ltd.). The cells on the dishes were observed using a confocal laser scanning microscope and a 20× objective lens. Fluorescence was excited by the 488 nm line of an argon laser and the 543 nm line of a helium-neon laser."}, "[5]": {"system": "animal models of ischemic reperfusion", "conditions": "cited from earlier work"}},
  "data": [
    {"molecule": "COC(=O)[C@@H](N)CCCNC(=N)N[N+](=O)[O-]", "note": "[L-NAME, N^G-nitro L-arginine methyl ester]", "values": [
      {"measurement": "effect on the anti-apoptotic effect of nicorandil", "setting": "cardiac myocytes; L-NAME final concentration 10^−6 M", "value": "partially blocked"}
    ]},
    {"molecule": "COc1ccc2c(c[n+](C)c3c4cc5c(cc4ccc23)OCO5)c1OC", "note": "[chelerythrine]", "values": [
      {"measurement": "effect on the anti-apoptotic effect of nicorandil", "setting": "cardiac myocytes; chelerythrine final concentration 10^−6 M", "value": "completely disappeared"}
    ]},
    {"molecule": "nitroprusside", "values": [
      {"measurement": "effect on the anti-apoptotic effect of nicorandil", "setting": "cardiac myocytes; nitroprusside final concentration 10^−4 M", "value": "enhanced"}
    ]},
    {"molecule": "CNc1ccc2oc(C[C@H]3O[C@@]4(CC[C@H]3C)O[C@H]([C@H](C)C(=O)c3ccc[nH]3)[C@H](C)C[C@H]4C)nc2c1C(=O)O", "note": "[A23187]", "values": [
      {"measurement": "induction of apoptosis", "setting": "[1]; A23187 5×10^−6 M", "value": "induced apoptosis significantly"}
    ]},
    {"molecule": "COc1ccc(Cl)cc1C(=O)NCCc1ccc(S(=O)(=O)NC(=O)NC2CCCCC2)cc1", "note": "[glibenclamide]", "values": [
      {"measurement": "effect on the anti-apoptotic effect of nicorandil (H2O2-induced apoptosis)", "setting": "[2]; glibenclamide 1×10^−5 M + nicorandil + H2O2 1×10^−4 M", "value": "completely blocked"}
    ]},
    {"molecule": "O=C(NCCO[N+](=O)[O-])c1cccnc1", "note": "[nicorandil, N-(2-hydroxyethyl)nicotinamide nitrate ester]", "values": [
      {"measurement": "inhibition of H2O2-induced apoptosis", "setting": "[2]; 1×10^−4 M nicorandil added immediately before 1×10^−4 M H2O2, 16 hours", "value": "significantly inhibited to the control level"},
      {"measurement": "inhibition at 100 µM", "setting": "[2]; Rattus norvegicus, Ventricular myocyte, pre-treatment with nicorandil 10^−4 M, read-out: inhibition of NRVM apoptosis induced by H2O2", "value": 60, "unit": "%"},
      {"measurement": "inhibition at 100 µM", "setting": "[1]; Rattus norvegicus, Ventricular myocyte, nicorandil 1×10^−4 M, A23187 5×10^−6 M, read-out: block / inhibition of apoptosis induced by calcium ionophore A23187", "value": "~50", "unit": "%"},
      {"measurement": "phosphorylation level of Bad", "setting": "[3]", "value": "increase the phosphorylation level of Bad"},
      {"measurement": "JC-1 green fluorescence (loss of mitochondrial membrane potential) upon H2O2 stimulation", "setting": "[4]", "value": "inhibit such green fluorescence"},
      {"measurement": "infarct size", "setting": "[5]", "value": "decrease infarct size"}
    ]},
    {"molecule": "CCCCCC(O)CCCC(=O)O", "note": "(stereo not drawn) [5-hydroxydecanoate]", "values": [
      {"measurement": "effect on the anti-apoptotic effect of nicorandil (H2O2-induced apoptosis)", "setting": "[2]; 5-hydroxydecanoate 5×10^−4 M + nicorandil 1×10^−4 M + H2O2 1×10^−4 M", "value": "partially blocked"},
      {"measurement": "effect on the anti-apoptotic effect of nicorandil (A23187-induced apoptosis)", "setting": "[1]; 5-hydroxydecanoate 5×10^−4 M + nicorandil 1×10^−4 M + A23187 5×10^−6 M", "value": "completely blocked"}
    ]},
    {"molecule": "OO", "note": "[H2O2, hydrogen peroxide]", "values": [
      {"measurement": "percentage of apoptotic cells", "setting": "[2]; 1×10^−4 M H2O2, 16 hours, 10% or less in the absence of H2O2", "value": "more than 70%"}
    ]},
    {"molecule": "ZVAD", "values": [
      {"measurement": "block of the pro-apoptosis effect of A23187", "setting": "[1]; ZVAD 1×10^−5 M, A23187 5×10^−6 M", "value": "around 50%"}
    ]}
  ]
}
